Measured values reported in US6906098B2, “Mixed steroidal 1,2,4,5-tetraoxane compounds and methods of making and using thereof” (priority 2002, dated 2005).
≈ marks a conversion by molar mass, not a printed value.

Columns and labels:
[1] = test system: Plasmodium falciparum chloroquine-susceptible strain D6; experiment: In vitro antimalarial drug susceptibility assay (radiolabeled hypoxanthine incorporation), strain D6; format: cell-based; settings: Plasmodium falciparum, D6, 66 h, read-out: Strain D6 IC50, growth inhibition, chloroquine-susceptible strain D6, 66 h incubation
[2] = test system: Plasmodium falciparum chloroquine-resistant strain W2; experiment: microbe, parasite or virus in culture; format: cell-based; settings: Plasmodium falciparum, W2, 66 h, read-out: Strain W2 IC50, growth inhibition, chloroquine-resistant strain W2, 66 h incubation
[3] = test system: D6 and W2 P. falciparum clones; format: cell-based, Plasmodium falciparum; settings: IC50 (W2)/IC50 (D6) ratio
[4] = test system: Mycobacterium tuberculosis H37Rv (ATCC 27294); experiment: Primary screen, Microplate Alamar Blue Assay (MABA), percent inhibition; format: cell-based; settings: Mycobacterium tuberculosis, Table 5; Alamar assay, primary screening at 6.25 μg/ml; read-out: % Inhib
Outline: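 Single-concentration screen at 6.25 μg/ml (or molar equivalent of the heaviest congener in a series) against H37Rv grown in BACTEC 12B medium. Growth read by Microplate Alamar Blue Assay, reported as percent inhibition.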

M. tuberculosis H37Rv = experiment: Minimum inhibitory concentration (MIC) in the MABA; format: cell-based, Mycobacterium tuberculosis; settings: Mycobacterium tuberculosis, H37RV, Table 5; Alamar assay, M. tuberculosis H37Rv; read-out: MIC
Outline: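 Run under the NIAID TAACF screening program against M. tuberculosis by fluorescence read-out. MIC taken as the lowest concentration giving 90% reduction in fluorescence relative to controls.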

VERO cells [5] = settings: ratio of IC50 in VERO cells to MIC (M. tuberculosis H37Rv)
VERO cells [6] = experiment: cells; settings: Chlorocebus sabaeus, Table 5

For `CCNC(=O)CCC(C)[C@H]1CCC2C3C(C[C@H](OC(C)=O)[C@@]21C)[C@@]1(C)CCC2(C[C@H]1C[C@H]3OC(C)=O)OOC1(CCCCC1C)OO2` (stereo partly drawn) [15/1C24, N-Ethyl-7α,12α-diacetoxy-5β-cholan-24-amide-3-spiro-6′-(1′,2′,4′,5′-tetraoxacyclohexane)-3′-spiro-1″-(2″-methyl)cyclohexane], the IC50 [1] was 0.00837 µg/mL (≈ 0.0126 µM), the IC50 [2] was 0.00461 µg/mL (≈ 0.00697 µM) and the “Resistance Index” value [3] was 0.55. For the same compound, the inhibition at 6.25 µg/mL [4] was 98%, the MIC (M. tuberculosis H37Rv) was 3.13 µg/mL (≈ 4.73 µM) and the “SI (selectivity index)” value (VERO cells [5]) was 2.24. It also gave an IC50 (VERO cells [6]) of 7.02 µg/mL (≈ 10.6 µM).
